Experimental data taken from PubChem BioAssay AID1159565 (GlaxoSmithKline (GSK), 2015).
The source made the active and inactive calls. The rule behind the calls is not given here.

System: T. cruzi-infected H9C2 cardiomyocytes, high-content imaging
Test: intracellular T. cruzi amastigote inhibition, imaging, H9C2 host cardiomyocytes, host toxicity (AID 1159565);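 note: infected cells incubated 72 h after plating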
[1] = measured here: H9C2 host cell toxicity
[2] = measured here: amastigotes per cell

SMILES	IC50	IC50 [1]	IC50 [2]
c1ccc(CNc2cccc3ccncc23)cc1	6.3 µM	> 50 µM	5 µM
Cc1nn(C)c(Cl)c1CN(Cc1cccnc1)Cc1ccsc1	0.32 µM	> 50 µM	0.32 µM
Cc1cc(-c2cccc3ccccc23)nc2nc(N)nc(N)c12	> 50 µM (inactive)	> 50 µM	32 µM
CS(=O)(=O)c1ccc(Nc2nccc(Nc3n[nH]c4ccc(F)cc34)n2)c(F)c1	32 µM	16 µM	4 µM
O=C(NC1C(=O)N(c2ccccc2)C1c1cccnc1)c1ccc(Cl)s1 (stereo not drawn)	0.05 µM	> 50 µM	0.04 µM
NCC(Cc1ccccc1)NC(=O)c1cnc(-c2c[nH]c3ncccc23)s1 (stereo not drawn)	> 50 µM (inactive)	0.63 µM	20 µM
CCN(CC)c1nc(N(C)C)nc2c1CN(Cc1ccccc1)CC2	20 µM	> 50 µM	4 µM
O=C(Nc1nc(-c2ccccn2)cs1)N1C[C@H]2C[C@@]2(c2ccccc2)C1	0.5 µM	0.79 µM	0.25 µM
Cc1ccccc1CNc1cc(C2CC2)nc(-c2nccn2C)n1	0.79 µM	0.79 µM	0.79 µM
Cc1c(CNC(=O)c2ccc(Cn3cc(Cl)c([N+](=O)[O-])n3)cc2)cnn1C	1.6 µM	> 50 µM	0.79 µM
CC(=O)Nc1ccc(CN2CCC(N3CC(c4ccccc4)(c4ccccc4)OCC3=O)CC2)cc1	32 µM	> 50 µM	20 µM
COc1cccc(CCNC(=O)C(c2cn[nH]c2)N2CCN(c3ccc(Cl)cc3)CC2)c1 (stereo not drawn)	0.02 µM	40 µM	0.016 µM
CC(=O)Nc1ccc(Nc2nccc(-c3cnn4ncccc34)n2)cc1C(F)(F)F	0.5 µM	0.063 µM	0.2 µM
N#Cc1ccc(C(=O)Nc2cccc(-c3cccc(CN4CCC(O)CC4)c3)c2)cc1	7.9 µM	32 µM	7.9 µM
CC(=O)Nc1ccc(-c2noc(CC3CCCN(Cc4cccc(F)c4C)C3)n2)cc1 (stereo not drawn)	2 µM	32 µM	1.3 µM
CCC(c1ccc(F)cc1)n1cncc1-c1cnn(C)c1 (stereo not drawn)	0.32 µM	> 50 µM	0.32 µM
Cn1nccc1-c1cc(OC(CN)c2ccccc2)cnc1-c1ccco1 (stereo not drawn)	0.1 µM	> 50 µM	0.1 µM
O=C(CCCNC(=O)c1ccc(Cl)cc1)Nc1nc(-c2ccccn2)cs1	25 µM	25 µM	10 µM
CCCc1nc2nc(N)nc(N)c2cc1CC	0.32 µM	13 µM	0.079 µM
C[C@@H](Oc1cc(-n2cnc3ccc(C(O)CO)cc32)sc1C(N)=O)c1ccccc1C(F)(F)F (stereo partly drawn)	20 µM	0.63 µM	16 µM
O=C1NCc2cccc(Nc3nc(NC4CCC(O)CC4)ncc3Br)c21 (stereo not drawn)	1 µM	0.1 µM	0.4 µM
CCOC(=O)c1cn[nH]c1S(=O)(=O)N1CCC1c1ccccc1 (stereo not drawn)	> 50 µM (inactive)	> 50 µM	> 50 µM
CN(C)S(=O)(=O)c1cccc(C(=O)Nc2nc(-c3ccccn3)cs2)c1	1.6 µM	7.9 µM	1 µM
CC1CN(Cc2ccc(C#N)cc2)CCN1c1ccc(NC(=O)c2ccccc2F)cc1 (stereo not drawn)	> 50 µM (inactive)	> 50 µM	> 50 µM
Cc1cccc(N2CCCN(Cc3c[nH]c4ccccc34)CC2)n1	0.4 µM	2.5 µM	0.32 µM
Cc1cc2cc(CNc3ccc4c(c3)OCO4)c(=O)n(CCO)c2cc1C	0.25 µM	> 50 µM	0.2 µM
